This experiment deals with T1, Transcription factor SOX-18 (Mouse, UniProt P43680).
T1 sequence (P43680 whole entry): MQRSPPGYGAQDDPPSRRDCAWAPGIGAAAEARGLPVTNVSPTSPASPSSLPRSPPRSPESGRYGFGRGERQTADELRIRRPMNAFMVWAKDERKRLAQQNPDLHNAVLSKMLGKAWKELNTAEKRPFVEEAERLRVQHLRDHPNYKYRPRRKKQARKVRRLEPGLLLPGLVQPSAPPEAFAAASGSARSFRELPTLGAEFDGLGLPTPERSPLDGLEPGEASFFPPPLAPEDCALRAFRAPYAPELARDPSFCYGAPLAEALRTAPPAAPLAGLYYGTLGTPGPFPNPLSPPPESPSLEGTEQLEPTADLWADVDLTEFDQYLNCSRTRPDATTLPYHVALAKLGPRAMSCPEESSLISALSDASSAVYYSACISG
In words: Fluorescence Polarization Assay. Conditions: pH 7.5; 37 °C. How it is done:
The DNA-binding competition assay was performed in 25 μL, in black 384-well plates, using either 30 mM HEPES (N-2-Hydroxyethylpiperazine-N'-2-Ethanesulfonic Acid) (pH 7.5, with 100 mM KCl, 40 mM NaCl, 10 mM NH4OAc, 10 mM Guanidinium, 2 mM MgCl2, 0.5 mM EDTA, 0.01% NP-40) for mouse full length SOX18, or Tris-NaCl (10 mM Tris pH 8.0 and 100 mM NaCl) for SOX-HMG fragments. All experiments were performed using a 40bp double-stranded Prox1-DNA element with 5' fluorescein amidite (FAM) label (Sigma Proligo or InVitrogen). Optimum binding levels were obtained at 200 nM of mouse full length SOX18 and 60 nM of SOX-HMG fragment, in presence of 5 nM labelled DNA. Controls consisted of free labelled DNA (low FP milli-Polarization index, mP), labelled DNA in presence of protein (negative control, high mP), and labelled DNA and protein in presence of 400 time competing excess of unlabelled DNA (positive control, low mP). Depending on compound, final DMSO concentrations ranged from 2 to 3.33% v/v. After mixing protein, DNA probe and compound, plates were sealed and briskly agitated in the dark for 5 minutes at room temperature, 10 minutes at 37 °C, and 30 minutes at room temperature, before reading fluorescencepolarization on a Tecan M1000Pro (λexc = 485 nm, λem = 525 nm). All experiments were performed intriplicates.

For the compound `O=C(O)c1c(O)cccc1CCc1ccc2ccccc2c1` [Sm4], the IC50 (commonly the concentration at which inhibition is half-maximal) is 97.5 µM. The compound `O=C(O)c1c(O)cccc1COCCC1C=CC=CC1` (stereo unspecified) [Sm5] had an IC50 of 1110 µM. As for `COc1cccc(CCCCCCc2ccccc2)c1C(=O)O` [Sm8], the figure is 327 µM.

With `COc1ccc(OCC(=O)c2ccc(O)cc2O)cc1` [Sm11], the IC50 was found to be 3800 µM. Against the preceding compound, the IC50 is about 12-fold higher. `O=C(COc1ccc2ccccc2c1)c1ccc(O)cc1O` [Sm12]: half-maximal inhibition (IC50) was put at 2880 µM. In turn, `Cc1cccc2c(=O)c3c(O)cc(O)cc3oc12` [Sm13] gave an IC50 of 481 µM.

(Values after BindingDB's records for doi:10.1016/j.chembiol.2017.01.003 (The University of Queensland, 2017).)
